The results in this text go back to patent US10632127B2, “Targeted notch pathway inhibitors” (Hoffmann-La Roche Inc., priority 2015, dated 2020).

SMILES strings stand for the structures. Where two headings read alike, the source gives them in different places.

A short description of data set [1]: Distribution in plasma, liver and kidney in the aristolochic acid mouse model (repeated i.p.). It is filed as in vivo. The following applies: 13a 30 mg/kg b.i.d. i.p. repeated, 13 h; for concentration at 13 h: male, C57BL/6, mouse, ip, 30 mg/kg. The protocol:
(§1) For PK evaluation, the compounds were administered i.p to male C57BL/6 mice in suspension (gelatine/saline 7.5%/0.62% in water) using an administration volume of 4 mL/kg. Blood samples were collected in tubes containing EDTA, plasma was separated by centrifugation and stored at −80° C. Liver and kidney samples (˜100 mg aliquots) were homogenized in three volumes of water using Precellys tissue homogenization tubes (precellys.com). 25 μL of each tissue homogenate was further diluted with 25 μL blank plasma to produce the final tissue homogenate for extraction. All samples were analyzed using protein precipitation followed by LC-MS/MS analysis. Briefly, 50 μL plasma or final tissue homogenate were mixed with 50 μL 0.5M HClO4/acetonitrile 9/1 (containing 200 ng/mL internal standard bosentan). Samples were stirred and 300 μL water was added followed by centrifugation at 5600 rpm (4° C., 10 min). 10 μL supernatant was analyzed by LC/MS analysis. Calibration standards in plasma were prepared the same way. The LC column and conditions used were: Phenomenex, Polar RP, 4 μm, 50×2.1 mm at 0.4 mL/min flow rate with a 3 min gradient from 95% solvent A to 95% solvent B (Solvent A: Water/ACN/HCOOH, 90:10:0.1+10 mM NH4 formate; Solvent B: Water/ACN/HCOOH, 10:90:0.1+10 mM NH4 formate). Mass spectrometric conditions were: Thermo TSQ Vantage with positive heated electrospray ionization in MS/MS mode. Compounds mass transitions monitored were m/z 320.7 to 119.9. PK parameters for all studies were calculated using Phoenix WinNonlin Software.
All experiments with animals were conducted in accordance with federal and local regulation at the respective study location. Kidney injury was induced by intraperitoneal (i.p). injection of aristolochic acid (AA, Sigma-Aldrich, 1×5 mg/kg) in 10 weeks old BALB/c male mice. The γ-secretase inhibitors prodrugs were diluted in NaCl 0.9% and administered i.p., starting one day before the injection of AA (day −1) and then twice daily until day 6 evening (n=5 mice/experimental group). […] The kidneys were cut in four fragments. One fragment was immediately frozen in liquid nitrogen, one fragment was included in OCT (Tissue-Tek, VWR International, Switzerland) and frozen, one fragment was frozen at −80° C. and one fragment was fixed in 4% paraformaldehyde and included in paraffin.
To investigate potential nephroprotective effects of Notch blockade using γ-secretase inhibition and to evaluate the effects of our enzyme-targeted prodrug strategy, we used the in vivo AA mouse model of acute renal tubular damage. […]
Plasma and tissue concentrations of administered compound (Table 6A-C) and formed free γ-secretase inhibitor (8) (Table 6A) or amine-SecrI (11a) (Table 6B-C) were determined following 8-day repeated i.p. administration at 10 mg/kg b.i.d. (Table 6A) or 30 mg/kg b.i.d. […] Numbers in parentheses represent relative amounts with the exposure of 11a in kidney arbitrarily set at each time point to 100%. […] BQL=below quantifiable limit.

The nature of data set [2]: Pharmacokinetic assessment in C57BL/6 healthy wild-type mice (i.p.). Type of data set: in vivo, mouse. The following applies: C57BL/6 mice, 10 mg/kg i.p. As to the method:
as §1
We next determined the stability, tissue distribution and cleavage rate in plasma, liver and kidney of the designed prodrugs in non-diseased mice. In the in vivo screen, the kinetics and distribution of γ-secretase inhibitor prodrugs Ac-γ-Glu-SecrI (13a), Ac-α-Glu-SecrI (15a) and H-α-Glu-SecrI (15b) were compared with the active γ-secretase inhibitor amine-SecrI (11a). After i.p administration (10 mg/kg) in C57BL/6 mice, the disappearance of the prodrugs and the formation of the active amine-SecrI (11a) were compared in plasma, liver and kidney (Table 5). First, we determined the pharmacokinetics (PK) behavior of amine-SecrI (11a) following i.p. administration (Table 5A). […] Liver and kidney exposure were much higher, with approximately 4.5-fold higher exposure in liver compared to kidney. […] The selectivity towards kidney appeared to decrease over time, probably due to fast clearance and re-equilibration of the amine-SecrI (11a). However, the high selectivity at earlier time-points assured that the total exposure over time was much higher in the kidney compared to the liver.

Turning to `CC(=O)N[C@@H](CCC(=O)NCCNC(=O)OCCN1C(=O)[C@@H](NC(=O)[C@@](C)(O)C(=O)NCC(F)(F)C(F)(F)F)[C@@H](C)Oc2ccc(F)cc21)C(=O)O` [Compound 13a, (S)-2-acetamido-5-(2-((2-((2R,3S)-7-fluoro-3-((S)-2-hydroxy-2-methyl-3-oxo-3-(2,2,3,3,3-pentafluoropropylamino)propanamido)-2-methyl-4-oxo-3,4-dihydrobenzo[b][1,4]oxazepin-5(2H)-yl)ethoxy)carbonylamino)ethylamino)-5-oxopentanoic acid], the “Plasma concentration of 13a” value in data set [1] (AA-exposed mice) is given as “BQL”. For the same molecule, the concentration at 13 h in data set [1] (kidney, AA-exposed mice, read-out: Kidney concentration of 13a) was found to be 23 ng/g; in data set [1] (kidney, mice, without AA (Table 6B), read-out: Kidney concentration of 13a), 11 ng/g; in data set [1] (liver, AA-exposed mice, read-out: Liver concentration of 13a) it was 155 ng/g; in data set [1] (liver, mice, without AA (Table 6B), read-out: Liver concentration of 13a), 19 ng/g; in data set [1] (plasma, mice, without AA (Table 6B), read-out: Plasma concentration of 13a) it was 6 ng/mL. For the same molecule, the “conversion to amine-SecrI (11a), in words” value in data set [2] was “high conversion”. In data set [2], the “plasma exposure, in words” value is listed as “low plasma exposure”. In addition, the “Plasma concentration of administered compound” value in data set [2] (4 h) and in data set [2] (7 h) was “BQL” each time. Further, the “Kidney concentration of administered compound” value in data set [2] (7 h) is “BQL”. In addition, the concentration at 0.5 h in data set [2] (male, mouse, kidney, ip, read-out: Kidney concentration of administered compound) is 1030 ng/g; in data set [2] (male, mouse, liver, ip, read-out: Liver concentration of administered compound), 3570 ng/g; in data set [2] (male, mouse, plasma, ip, read-out: Plasma concentration of administered compound), 4.88 ng/mL. Moreover, the concentration at 4 h in data set [2] (male, mouse, kidney, ip, 4 h, read-out: Kidney concentration of administered compound) was found to be 16.6 ng/g; in data set [2] (male, mouse, liver, ip, 4 h, read-out: Liver concentration of administered compound) it was 625 ng/g. The concentration at 7 h in data set [2] (male, mouse, liver, ip, 7 h, read-out: Liver concentration of administered compound) amounted to 22.3 ng/g.
